Laboratory results as given in patent publication US4837316A, “Alkylamide derivatives with H2 -receptor antagonistic and cytoprotective action” (Fujirebio Kabushiki Kaisha, priority 1985, dated 1989).

Columns and labels:
Histamine H2-receptor = target: T1, Histamine H2-receptor (Cavia porcellus, UniProt P47747); test: Histamine H2-receptor antagonistic action (isolated right atrium, histamine response); settings: isolated guinea-pig right atrium, 32° C., tested compound 1×10^-6 M or 1×10^-7 M, Van Rossum method; for Kb: read-out: pA2 (converted)
T1 construct: the right atrium was isolated rapidly; from tissue; host or cells: guinea pig right atrium (isolated organ)
T1 sequence (P47747 whole entry): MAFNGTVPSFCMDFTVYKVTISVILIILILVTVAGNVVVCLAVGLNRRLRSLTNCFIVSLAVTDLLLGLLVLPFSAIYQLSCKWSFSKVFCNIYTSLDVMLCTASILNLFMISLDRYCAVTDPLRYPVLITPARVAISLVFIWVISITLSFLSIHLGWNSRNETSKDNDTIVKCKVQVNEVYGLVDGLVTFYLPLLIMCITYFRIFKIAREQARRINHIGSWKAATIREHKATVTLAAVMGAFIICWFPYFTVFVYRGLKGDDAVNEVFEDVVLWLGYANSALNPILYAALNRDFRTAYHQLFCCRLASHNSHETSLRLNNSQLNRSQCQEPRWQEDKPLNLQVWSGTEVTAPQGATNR
Procedure: Histamine H2 -receptor antagonistic actions of the exemplified compounds were measured. Male Guinea-Pig weighing 300 to 350 g was killed by a blow on the head. After thoracotomy, the right atrium was isolated rapidly, and the surrounding tissues of the right atrium was carefully dissected. The preparation was mounted isometrically in 30 ml organ bath containing an oxygenated (O2 95%+CO2 5%) Krebs-Henselite solution at 32° C. 1 g of resting tension was loaded through the experiment. Contraction of the right atrium to histamine was measured with a force-displacement transducer, and heart rate was measured with a heart rate meter. After the control dose-response curve in the presence of tested compound (1×10^-6 M or 1×10^-7 M) was determined.
The pA2 value of each compound was determined from these two curves by the method of J. M. Van Rossum (Arch. Int. Pharmacodyn. Ther 143-299 (1963)).

gastric mucosal leasion = test: Cytoprotective action (gastric mucosal lesion by necrotizing agent 0.4N HCl+50% EtOH); assay type: in vivo, Male Donryu rats; settings: Rattus norvegicus, po; 10 mg/kg P.O., 30 minutes before 5 ml/kg 0.4N HCl+50% EtOH; stomach taken 1 hour after; read-out: Repression % (inhibition % of total area of gastric mucosal leasion vs control)
Procedure: Cytoprotective actions of the exemplified compounds were examined.
Male Donryu rats weighing 150-250 g were used after fasting for 24 hours. 10 mg/kg P.O. of the test compound was administrated, and 5 ml/kg of a necrotizing agent (0.4N HCl+50% EtOH) was orally administrated after 30 minutes. After 1 hour from the administration of the necrotizing agent, its stomach was dissected out, and fixed with formalin. Total area of gastric mucosal leasion was measured, and compared with a control group to determine inhibition %.

SMILES | Kb (Histamine H2-receptor) [µM] | pA2 (Histamine H2-receptor) | inhibition in vivo at 10 mg/kg (gastric mucosal leasion) [%]
O=C(CSCc1cccc(Cl)n1)NCCCOc1cccc(CN2CCCCC2)c1 [Compound 82, N-[3-{3-(piperidinomethyl)phenoxy}propyl]-2-(6-chloro-2-pyridylmethylthio)acetamide] | 0.02 |  | 61
Cc1ccc(CSCC(=O)NCCCOc2cccc(CN3CCCCC3)c2)o1 [Compound 69, N-[3-{3-(piperidinomethyl)phenoxy}propyl]-2-(5-methyl-furfurylthio)acetamid] | 0.00398 |  | 59
COc1ccc(CSCC(=O)NCCCOc2cccc(CN3CCCCC3)c2)cc1 [Compound 12, N-[3-{3-(piperidinomethyl)phenoxy}propyl]-2-(4-methoxybenzylthio)acetamide] | 0.0501 |  | 
CC1CCCN(Cc2cccc(OCCCNC(=O)CS(=O)(=O)Cc3ccoc3)c2)C1 (centres unmarked) [Compound 73] | 0.0501 |  | 88
CC1CCCCN1Cc1cccc(OCCCNC(=O)CS(=O)(=O)Cc2ccoc2)c1 (centres unmarked) [Compound 74] | 0.631 |  | 50
NC(N)=Nc1nc(CSCCNC(=O)CSCc2ccc3ccccc3c2)cs1 [Compound 108] |  |  | 51.2
O=C(CSCc1cccs1)NCCCOc1cccc(CN2CCCCC2)c1 [Compound 20] |  |  | 45
O=C(CS(=O)(=O)Cc1ccco1)NCCCOc1cccc(CN2CCCCC2)c1 [Compound 47, N-[3-[3-(piperidinomethyl)phenoxy]propyl]-2-(furfurylsulfonyl)acetamide] |  |  | 85
O=C(C[S+]([O-])Cc1ccco1)NCCCOc1cccc(CN2CCCCC2)c1 (centres unmarked) [Compound 46, N-[3-[3-(piperidinomethyl)phenoxy}propyl]-2-(furfurylsulfinyl)acetamide] |  |  | 72
CC1CCN(Cc2cccc(OCCCNC(=O)CS(=O)(=O)Cc3ccoc3)c2)CC1 [Compound 72] | 0.1 |  | 60
COc1ccc(CSCC(=O)NCCCOc2cccc(CN3CCCCC3)c2)nc1 [Compound 79] | 0.00794 |  | 53
O=C(CCCSCc1ccccc1)NCCCOc1cccc(CN2CCCCC2)c1 [Compound 30] |  |  | 62
O=C(CSCc1ccc(C(=O)O)cc1)NCCCOc1cccc(CN2CCCCC2)c1 [Compound 48, N-[3-{3-(piperidinomethyl)phenoxy}propyl]-2-(4-carboxylbenzylthio)acetamide] | 0.0316 |  | 
O=C(CSCCCc1ccccc1)NCCCOc1cccc(CN2CCCCC2)c1 [Compound 14, N-[3-{3-(piperidinomethyl)phenoxy}propyl]-2-(3-phenylpropyl-1-thio)acetamide] |  |  | 55
O=C(CSCc1ccco1)NCCSCc1ccc(CN2CCCCC2)o1 [Compound 89] |  |  | 46
O=C(CS(=O)(=O)Cc1ccccc1)NCCCOc1cccc(CN2CCCCC2)c1 [Compound 45, N-[3-{3-(piperidinomethyl)phenoxy}propyl]-2-(benzylsulfonyl)acetamide] |  |  | 72
CC(SCC(=O)NCCCOc1cccc(CN2CCCCC2)c1)c1ccco1 (centres unmarked) [Compound 58, N-[3-{3-(piperidinomethyl)phenoxy}propyl]-2-{1-(2-furyl)ethylthio}acetamide] | 0.0316 |  | 
O=C(CSCc1ccoc1)NCCCOc1cccc(CN2CCCCC2)c1 [Compound 57, N-[3-{3-(piperidinomethyl)phenoxy}propyl]-2-(3-furylmethylthio)acetamide] | 0.0316 |  | 69
COC(=O)c1ccc(CSCC(=O)NCCCOc2cccc(CN3CCCCC3)c2)o1 [Compound 75, N-[3-{3-(piperidinomethyl)phenoxy}propyl]-2-{(5-methoxycarbonyl)furfurylthio}acetamide] | 0.02 |  | 
O=C(CSCc1ccco1)NCCSCc1ccc(C=CCN2CCCC2)s1 [Compound 93] |  |  | 43
O=C(CCCCCSCc1ccccc1)NCCCOc1cccc(CN2CCCCC2)c1 [Compound 35, N-[3-{3-(piperidinomethyl)phenoxy}propyl]-6-(benzylthio)hexylamide] |  |  | 61
O=C(CSCc1ccc2ccccc2c1)NCCCOc1cccc(CN2CCCCC2)c1 [Compound 21, N-[3-{3-(piperidinomethyl)phenoxy}propyl]-2-(2-naphthylmethylthio)acetamide] |  |  | 60
O=C(C[S+]([O-])Cc1ccccc1)NCCCOc1cccc(CN2CCCCC2)c1 (centres unmarked) [Compound 44, N-[3-{3-(piperidinomehtyl)phenoxy}propyl]-2-(benzylsulfinyl)acetamide] | 0.251 |  | 73
O=C(CSCC1CCCCC1)NCCCOc1cccc(CN2CCCCC2)c1 [Compound 16, N-[3-{3-(piperidinomethyl)phenoxy}propyl]-2-(cyclohexylmethylthio)acetamide] | 0.0126 |  | 
O=C(CSCc1ccccc1)NCCCOc1cccc(CN2CCCCC2)c1 [Compound 1, N-[3-{3-(piperidinomethyl)phenoxy}propyl]-2-(benzylthio)acetamide] | 0.0316 |  | 59
O=C(CSCc1ccco1)NCCCOc1cccc(CN2CCCCC2)c1 [Compound 19, N-[3-{3-(piperidinomethyl)phenoxy}propyl]-2-(furfurylthio)acetamide] | 0.0501 |  | 63

Second part, led by results:

Kb (Histamine H2-receptor) [µM] | pA2 (Histamine H2-receptor) | SMILES | inhibition in vivo at 10 mg/kg (gastric mucosal leasion) [%]
0.2 |  | NC(N)=Nc1nc(CSCCNC(=O)CSCc2cccs2)cs1 [Compound 106] | 
0.2 |  | NC(N)=Nc1nc(CSCCNC(=O)CSCc2ccoc2)cs1 [Compound 104] | 50.6
0.0251 |  | O=C(CSCc1ccc(Cl)s1)NCCCOc1cccc(CN2CCCCC2)c1 [Compound 113, N-[3-{(piperidinomethyl)phenoxy}propyl]-2-{(5-chloro-2-thienyl)methylthio}acetamide] | 
0.0794 |  | NC(N)=Nc1nc(CSCCNC(=O)CSCc2ccco2)cs1 [Compound 110] | 58
0.0316 |  | CC(=O)Nc1ccsc1CSCC(=O)NCCCOc1cccc(CN2CCCCC2)c1 [Compound 116, N-[3-{3-(piperidinomethyl)phenoxy}propyl]-2-{(3-acetamide-2-thienyl)methylthio}acetamide] | 
0.0398 |  | O=C(CSCc1ccsc1Cl)NCCCOc1cccc(CN2CCCCC2)c1 [Compound 114, N-[3-{3-(piperidinomethyl)phenoxy}propyl]-2-{(2-chloo-3-thienyl)methylthio}acetamide] | 
 | 7.6 | NC(N)=Nc1nc(CSCCNC(=O)CSCc2ccccn2)cs1 [Compound 109] | 
0.0158 |  | Cc1ccc(CSCC(=O)NCCCOc2cccc(CN3CCCCC3)c2)s1 [Compound 112, N-[3-{3-(piperidinomethyl)phenoxy}propyl]-2-{(5methyl-2-thienyl)methylthio}acetamide] | 
0.1 |  | O=C(CSCc1ccco1)NCCCOc1cc(CN2CCCCC2)ccn1 [Compound 100] | 35
0.794 |  | NC(N)=Nc1nc(CSCCNC(=O)CSCC2CCCCC2)cs1 [Compound 107] | 52.3
0.0251 |  | Cc1cccc(CSCC(=O)NCCCOc2cccc(CN3CCCCC3)c2)n1 [Compound 86] | 
0.0794 |  | NC(N)=Nc1nc(CSCCNC(=O)CSCc2ccccc2)cs1 [Compound 105] | 
0.316 |  | O=C(CSCc1ccco1)NCCSCc1ccc(CN2CCCCC2)s1 [Compound 94] | 
